Laboratory results taken from ChEMBL document CHEMBL1201862, “PubChem BioAssay data set” (2004).
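A five-concentration, 48-hour dose response in 96-well plates underlies each endpoint, interpolated linearly between surrounding concentrations. At the GI50, growth is halved.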 Calls of active or inactive are those of the source. No stated cut-off is given here; in the data, active = GI50 up to about 1.1 µM and inactive = higher.

How the values were obtained:
Assay in all cases: inhibition of tumour cell growth, NCI panel, 48 h
KM12 = tested on: KM12
RPMI-8226 = tested on: RPMI-8226
NCI-H226 = tested on: NCI-H226
SNB-75 = tested on: SNB-75
UACC-257 = tested on: UACC-257
SK-OV-3 = tested on: SK-OV-3
UACC-62 = tested on: UACC-62
OVCAR-5 = tested on: OVCAR-5
U-251 = tested on: U-251
Malme-3M = tested on: Malme-3M
A498 = tested on: A498
MOLT-4 = tested on: MOLT-4
LOX IMVI = tested on: LOX IMVI
M14 = tested on: M14
SK-MEL-2 = tested on: SK-MEL-2
MDA-MB-435 = tested on: MDA-MB-435
NCI/ADR-RES = tested on: NCI/ADR-RES
MDA-MB-231 = tested on: MDA-MB-231

Measured: GI50

O=C1CCCCC1S(=O)(=O)c1ccccc1 (stereo not given)
inactive: KM12 > 100 µM | RPMI-8226 > 100 µM | NCI-H226 > 100 µM | SNB-75 > 100 µM | UACC-257 > 100 µM | SK-OV-3 > 100 µM | UACC-62 > 100 µM | OVCAR-5 > 100 µM | U-251 > 100 µM | Malme-3M > 100 µM | A498 > 100 µM | MOLT-4 > 100 µM | LOX IMVI > 100 µM | M14 > 100 µM | SK-MEL-2 > 100 µM

COc1ccc(NC(=S)NN=C(C)c2cccc(C(C)=NNC(=S)Nc3ccc(OC)cc3)n2)cc1
inactive: KM12 6.44 µM | RPMI-8226 > 100 µM | NCI-H226 47.9 µM | SNB-75 3.9 µM | MDA-MB-435 85.5 µM | NCI/ADR-RES 8.59 µM | UACC-257 > 100 µM | SK-OV-3 21.4 µM | UACC-62 > 100 µM | OVCAR-5 > 100 µM | U-251 24.5 µM | Malme-3M 13.4 µM | A498 > 100 µM | MOLT-4 8.55 µM | LOX IMVI 13.6 µM | M14 11.2 µM | SK-MEL-2 > 100 µM

Cc1ccc(S(=O)(=O)NC(=O)NC23CC4CC(CC(F)(C4)C2)C3)cc1
inactive: KM12 > 100 µM | RPMI-8226 > 100 µM | SNB-75 73.6 µM | UACC-257 > 100 µM | SK-OV-3 > 100 µM | UACC-62 > 100 µM | OVCAR-5 > 100 µM | U-251 > 100 µM | Malme-3M > 100 µM | A498 > 100 µM | MOLT-4 > 100 µM | LOX IMVI > 100 µM | M14 > 100 µM | SK-MEL-2 > 100 µM

O=C1[C@H]2ON(c3ccccc3)C(c3ccc(Cl)cc3Cl)[C@H]2C(=O)N1c1ccc(Cc2ccc(N3C(=O)[C@@H]4ON(c5ccccc5)C(c5ccc(Cl)cc5Cl)[C@@H]4C3=O)cc2)cc1 (stereo not given in full)
inactive: KM12 > 100 µM | RPMI-8226 > 100 µM | NCI-H226 > 100 µM | SNB-75 > 100 µM | UACC-257 > 100 µM | SK-OV-3 > 100 µM | UACC-62 > 100 µM | OVCAR-5 > 100 µM | U-251 > 100 µM | Malme-3M 96.8 µM | A498 > 100 µM | MOLT-4 > 100 µM | LOX IMVI > 100 µM | M14 19.6 µM | SK-MEL-2 > 100 µM

CCCCCCCCCCSC(=O)NC
inactive: KM12 35.2 µM | RPMI-8226 21.9 µM | SNB-75 48.8 µM | UACC-257 27.9 µM | SK-OV-3 > 100 µM | UACC-62 35.5 µM | OVCAR-5 80.9 µM | U-251 25.8 µM | Malme-3M 36.3 µM | A498 37.5 µM | MOLT-4 18.5 µM | LOX IMVI 32.9 µM | M14 22.4 µM | SK-MEL-2 22.5 µM

CCOP(=O)(OCC)C(Nc1ccc(Cl)cc1)c1ccc(F)cc1 (stereo not given)
inactive: KM12 31 µM | RPMI-8226 22.5 µM | NCI-H226 25.8 µM | SNB-75 20.5 µM | MDA-MB-435 15.7 µM | NCI/ADR-RES 22.8 µM | UACC-257 18.5 µM | SK-OV-3 41.7 µM | UACC-62 4.7 µM | U-251 18.2 µM | Malme-3M 19.1 µM | A498 18.5 µM | MOLT-4 23.1 µM | LOX IMVI 15.7 µM | MDA-MB-231 21.2 µM | M14 16.6 µM | SK-MEL-2 14.6 µM

COC(=O)C(C(=O)C(=O)Nc1ccc(OC)cc1[N+](=O)[O-])c1nc2cc(C)c(C)cc2nc1O (stereo not given)
inactive: NCI-H226 > 100 µM | SNB-75 > 100 µM | UACC-257 > 100 µM | SK-OV-3 > 100 µM | UACC-62 > 100 µM | U-251 > 100 µM | Malme-3M > 100 µM | A498 > 100 µM | LOX IMVI > 100 µM | M14 > 100 µM

O=C(c1ccc(Cl)cc1)c1ccc(OCCCOc2ccc(C(=O)c3ccc(Cl)cc3)cc2Cl)c(Cl)c1
inactive: KM12 > 100 µM | RPMI-8226 > 100 µM | NCI-H226 > 100 µM | SNB-75 > 100 µM | UACC-257 > 100 µM | SK-OV-3 > 100 µM | UACC-62 > 100 µM | OVCAR-5 > 100 µM | U-251 > 100 µM | Malme-3M > 100 µM | MOLT-4 > 100 µM | LOX IMVI > 100 µM | M14 > 100 µM | SK-MEL-2 > 100 µM

CC(=O)COC(=O)CC(C)=O
inactive: KM12 > 100 µM | RPMI-8226 > 100 µM | NCI-H226 > 100 µM | SNB-75 > 100 µM | UACC-257 > 100 µM | SK-OV-3 > 100 µM | UACC-62 > 100 µM | OVCAR-5 > 100 µM | U-251 > 100 µM | Malme-3M > 100 µM | MOLT-4 > 100 µM | LOX IMVI > 100 µM | M14 > 100 µM | SK-MEL-2 > 100 µM

CSc1n[n+]2c(s1)SCCC2
inactive: KM12 44.7 µM | SNB-75 42.8 µM | UACC-257 > 100 µM | UACC-62 > 100 µM | OVCAR-5 > 100 µM | U-251 > 100 µM | Malme-3M > 100 µM | MOLT-4 > 100 µM | LOX IMVI > 100 µM | M14 > 100 µM

NS(=O)(=O)c1ccc(Nc2c3ccccc3nc3c(C(=O)N4CCN(CCO)CC4)cccc23)cc1
inactive: KM12 93.5 µM | NCI-H226 > 100 µM | SNB-75 52.7 µM | UACC-257 > 100 µM | SK-OV-3 > 100 µM | UACC-62 > 100 µM | OVCAR-5 > 100 µM | U-251 > 100 µM | Malme-3M > 100 µM | A498 > 100 µM | MOLT-4 40.2 µM | LOX IMVI 92.7 µM | M14 > 100 µM | SK-MEL-2 > 100 µM

C/C(=N\N=C(N)N)c1sc(-c2nc(C)c(/C(C)=N/N=C(N)N)s2)nc1C
inactive: KM12 > 36.2 µM | RPMI-8226 39.3 µM | NCI-H226 > 100 µM | SNB-75 > 84.3 µM | UACC-257 > 100 µM | SK-OV-3 > 100 µM | UACC-62 > 100 µM | OVCAR-5 > 100 µM | U-251 > 95.3 µM | Malme-3M > 100 µM | A498 > 100 µM | MOLT-4 > 57.9 µM | LOX IMVI > 42.5 µM | M14 > 100 µM | SK-MEL-2 > 100 µM

CN(CCc1ccccn1)/[N+]([O-])=N/O.CNCCc1ccccn1
inactive: KM12 > 100 µM | RPMI-8226 > 100 µM | NCI-H226 > 100 µM | SNB-75 > 100 µM | UACC-257 > 100 µM | UACC-62 > 100 µM | OVCAR-5 > 100 µM | Malme-3M > 100 µM | MOLT-4 > 100 µM | M14 > 100 µM | SK-MEL-2 > 100 µM

Cc1cc2oc(=O)[nH]c(=S)c2c(C)c1C
inactive: KM12 > 100 µM | RPMI-8226 > 100 µM | NCI-H226 > 100 µM | SNB-75 > 100 µM | UACC-257 > 100 µM | SK-OV-3 > 100 µM | UACC-62 > 100 µM | U-251 > 100 µM | Malme-3M > 100 µM | A498 > 100 µM | MOLT-4 > 100 µM | LOX IMVI > 100 µM | M14 > 100 µM | SK-MEL-2 > 100 µM

COc1cc2c(cc1OC)[C@H]1C(COC(=O)Nc3ccccc3)CN1CC2 (stereo not given in full)
inactive: KM12 > 100 µM | RPMI-8226 > 100 µM | SNB-75 18.6 µM | SK-OV-3 > 100 µM | UACC-62 > 100 µM | OVCAR-5 > 100 µM | U-251 > 100 µM | Malme-3M > 100 µM | A498 70.6 µM | MOLT-4 95.5 µM | LOX IMVI 57.9 µM | M14 53.8 µM | SK-MEL-2 > 100 µM

CCCCCCCCCCCCCCCCCC(=O)O[C@H](COC(=O)CCCCCCCCCCC)COC(=O)CCCCCCCCCCCCCCC
inactive: RPMI-8226 > 100 µM | NCI-H226 > 100 µM | UACC-257 > 100 µM | SK-OV-3 > 100 µM | UACC-62 > 100 µM | OVCAR-5 > 100 µM | U-251 > 100 µM | Malme-3M > 100 µM | A498 > 100 µM | MOLT-4 > 100 µM | LOX IMVI > 100 µM | M14 > 100 µM

CCCCCCCCCCCCCCCCOCC(CN(C)CCN(C)C)OCCCCCCCCCCCCCCCC (stereo not given)
inactive: KM12 > 100 µM | RPMI-8226 > 100 µM | NCI-H226 > 100 µM | SNB-75 > 100 µM | UACC-257 > 100 µM | SK-OV-3 > 100 µM | UACC-62 > 100 µM | OVCAR-5 > 100 µM | U-251 > 100 µM | Malme-3M > 100 µM | A498 > 100 µM | MOLT-4 > 100 µM | LOX IMVI > 100 µM | M14 > 100 µM | SK-MEL-2 > 100 µM

COc1cc(CC2c3cc(OC)c(OC)cc3CCN2C)ccc1O (stereo not given)
inactive: KM12 > 100 µM | RPMI-8226 > 100 µM | SNB-75 > 100 µM | UACC-257 > 100 µM | OVCAR-5 > 100 µM | U-251 > 100 µM | Malme-3M > 100 µM | A498 > 100 µM | MOLT-4 > 100 µM | M14 > 100 µM | SK-MEL-2 > 100 µM

Clc1ccc(-n2nnc(C3=NCCN3)c2-c2ccccc2)cc1
inactive: KM12 > 100 µM | RPMI-8226 > 100 µM | NCI-H226 > 100 µM | SNB-75 47.3 µM | UACC-257 > 100 µM | SK-OV-3 > 100 µM | UACC-62 > 100 µM | OVCAR-5 > 100 µM | U-251 > 100 µM | Malme-3M > 100 µM | A498 > 100 µM | MOLT-4 78.5 µM | LOX IMVI > 100 µM | M14 > 100 µM | SK-MEL-2 > 100 µM
